According to PubChem BioAssay (NCI):
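48-hour exposure; five concentrations; linearly interpolated endpoints. At the GI50, growth is halved. TGI denotes the concentration required for complete inhibition of growth.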

Legend:
Assay in all cases: DTP human tumour cell line panel, 48 h
HT29 colon = system: HT29 colon
K-562 leukemia = system: K-562 leukemia
M14 melanoma = system: M14 melanoma
NCI-H226 lung = system: NCI-H226 lung
PC-3 prostate = system: PC-3 prostate
RXF 393 renal = system: RXF 393 renal
SK-MEL-5 melanoma = system: SK-MEL-5 melanoma
SN12C renal = system: SN12C renal
UACC-257 melanoma = system: UACC-257 melanoma
HCC-2998 colon = system: HCC-2998 colon

SMILES	TGI (HT29 colon) [µM]	TGI (K-562 leukemia) [µM]	TGI (M14 melanoma) [µM]	TGI (NCI-H226 lung) [µM]	TGI (PC-3 prostate) [µM]	TGI (RXF 393 renal) [µM]	TGI (SK-MEL-5 melanoma) [µM]	TGI (SN12C renal) [µM]	TGI (UACC-257 melanoma) [µM]	TGI (HCC-2998 colon) [µM]	GI50 (HCC-2998 colon) [µM]	GI50 (HT29 colon) [µM]	GI50 (K-562 leukemia) [µM]	GI50 (M14 melanoma) [µM]	GI50 (NCI-H226 lung) [µM]	GI50 (PC-3 prostate) [µM]	GI50 (RXF 393 renal) [µM]	GI50 (SK-MEL-5 melanoma) [µM]	GI50 (UACC-257 melanoma) [µM]
CCOP(=O)(/C=C/n1cc(C)c(=O)[nH]c1=O)OCC	> 100	> 100	> 100	> 100	> 100	> 100	> 100	> 100	> 100										
CC1=C(C)C(=O)C(C2=CC(=O)c3ccccc3C2=O)=C(C2=CC(=O)c3ccccc3C2=O)C1=O	28.7		> 40.8	49.5	21.7	22.4			28.6	19.8									
CCOc1ccc2nc(NC(=O)C(=O)C(C(=O)c3ccccc3F)C3OC(=O)c4ccccc43)sc2c1 (configuration not stated)		> 100	32.5	27.5		38.3	33.8	54.1	> 100	29.7									
C/C(=C1\N=C(c2ccccc2)OC1=O)c1ccccc1	> 100	> 100	> 100	> 100	> 100		> 100		> 100	> 100									
O=C(Nc1ccccc1)N1CCN(C(=O)Nc2ccccc2)C1=S	> 100	> 100	> 100	70.5		43.6	> 100	> 100	> 100	> 100									
C/C(=N\Nc1nc2ccccc2s1)c1ccncn1	14		14.4	1.07	> 43	24.7	7.08	18	> 100	> 41.9									
C=C(C)C1CC(=O)C(C)=C(O)C1 (configuration not stated)	> 100	> 100	> 100	> 100	> 100		> 100	> 100	> 100	> 100									
O=C(O)c1c(CC(Cc2ccc3c(c2)CCC3)C(=O)O)ccc2c1CCC2 (configuration not stated)	> 100	> 100	> 100	> 100	> 100		> 100	> 100	> 100	> 100									
COC(=O)C1=C(CCCCO[Si](C)(C)C(C)(C)C)NC(=O)N2[C@H](CCOCc3ccccc3)CC[C@@H]12		> 100	> 100	> 100	> 100		28.3	> 100	> 100	> 100									
COc1nc(Cl)nc(N[C@H](C)c2c3ccccc3cc3ccccc23)n1	31.3	97.8		31.6	31.5	25.9	19.5	17.8	30.2										
Cc1cn(CCCCCCOC(=O)NC(CCCNC(N)=O)C(=O)O)c(=O)[nH]c1=O (configuration not stated)	> 100	> 100	> 100	> 100	> 100	> 100		> 100	> 100	> 100									
O=C1c2cc3c(cc2-c2c1c1cc(F)c(F)cc1c(=O)n2CCCn1ccnc1)OCO3	> 100	> 100	> 100	0.115	> 100	0.169	0.0852		0.65	> 100	0.195	0.0189	0.0441	0.0101	0.0248	0.124	0.036	0.02	0.0969
Oc1ccc(C(O)C2CCCCN2)cc1O (configuration not stated)	> 100	> 100	> 100	> 100	> 100	> 100	> 100	> 100	> 100										
Nc1c(C(=O)c2ccc(Cl)c(Cl)c2)[nH]c(NCc2ccccc2)c1C(=S)Nc1ccccc1	11	> 100	12.6	31.4	30.5	27.3		29.2	30.5	3.48									
COP(=O)(OC)OCN(C)CC/C=C(\C)CC/C=C(\C)CCC=C(C)C		20.6	28	34.6	21.2	49.1	25.3	32.1	19.2	23.8									
ClC1=NN=C(c2c[nH]c3ccccc23)CC1NCc1ccccc1 (configuration not stated)	> 100	> 100	> 100	> 100	> 100	> 100	> 100	> 100	> 100										
COc1ccc(N2C(=O)C3c4[nH]c5c(C)cccc5c4C4CCC(C(C)C)CC4C3C2=O)cc1 (configuration not stated)	13.8	5.86	26.8	36.1	25.2		> 100	98	> 100	28.8									
COC1/C=C/C(C)C(O)CC(O)/C=C/C(C)C(C(C)C(OC)C(C)CCC(=O)C(C)C(C/C=C/N(C)C=O)OC)OC(=O)/C=C/C=C(\C)CC(OC)CC2=CC(=O)O[C@@H](C(C)C(OC)C1)[C@H]2O (some centres not stated)	0.741		< 0.005		0.131	0.0112	< 0.005	1.78	0.169										
O=C(CNc1ccccc1C(=O)O)Nn1cnc2ccc(S(=O)(=O)Nc3ccccc3C(=O)O)cc2c1=O	> 100	> 100	> 100	> 100	> 100			> 100	> 100	> 100									
COC(=O)[C@]1(c2cc3ccccc3n2S(=O)(=O)c2ccccc2)CC2CN(C(=O)OCc3ccccc3)C1C1OC(C)(C)OC21 (some centres not stated)	> 100		> 100	> 100	> 100	> 100	> 100	> 100	> 100	> 100									
C[s+]1c2ccccc2c2ccccc21	> 100	> 100	> 100	> 100		> 100	> 100	> 100		> 100									
N#Cc1ccccc1NC(=O)C(=O)C(C(=O)c1ccccc1F)C1OC(=O)c2ccccc21 (configuration not stated)	> 100	> 100	> 100	64.4		87.6	> 100	> 100	> 100	53.4									
